Assay results as given in patent publication US20070191490A1, “Withacnistin compounds for treatment of cancer” (priority 2006, published 2007).

Legend:
phospho-Erk1/2 = phospho-Erk1/2 levels in A549 cells (Western blotting); type: cell-based, human; conditions: 10 μM
Protocol: Western blotting. Treated cell samples were lysed in 30 mM HEPES, pH 7.5, 10 mM NaCl, 5 mM MgCl2, 25 mM NaF, 1 mM EGTA, 1% Triton X-100, 10% glycerol, 2 mM sodium orthovanadate, 10 μg/ml aprotinin, 10μ/ml soybean trypsin inhibitor, 25 μg/ml leupeptin, 2 mM PMSF, and 6.4 mg/ml p-nitrophenylphosphate. Phospho-STAT3, phospho-AKT, phospho-Src, and phospho-p42/p44 MAPK antibodies were obtained from Cell Signaling Technologies (Cambridge, Mass., USA). Phospho-JNK and whole STAT3 antibodies were purchased from Santa Cruz Biotechnology (Santa Cruz, Calif., USA); phospho-JAK2 antibody came from Upstate Biotechnology (Lake Placid, N.Y., USA). Membranes were blocked in either 5% milk in phosphate-buffered saline (PBS), pH 7.4, containing 0.1% Tween-20 (PBS-T) or 1% BSA in tris-buffered saline (TBS), pH 7.5, containing 0.1% Tween-20 (TBS-T). Phospho-specific antibodies (excepting P-MAPK and P-JNK) were incubated in 1% BSA in TBS-T while all other antibodies were diluted in 5% milk in PBS-T for either 2 h at room temperature or overnight at 4° C. HRP-conjugated secondary antibodies (Jackson ImmunoResearch, West Grove, Pa., USA) were diluted in 5% milk in either PBS-T or TBS-T at 1:1000 dilution for 1 h at room temperature. […]
It was next determined whether withacnistin and the Cuc analogs are selective for the JAK2/STAT3 pathway over other signal transduction pathways. […]

MDA-MB-453 cells = assay: TUNEL apoptosis assay, MDA-MB-453; type: cell-based, human; conditions: 10 μM withacnistin mixture, 24 hours
Protocol: (§1) In vitro cellular proliferation and TUNEL assays. Subconfluent A549, MDA-MB-435, MDA-MB-453, MDAMB-468, v-Src transformed NIH 3T3 (v-Src/3T3), H-Ras transformed NIH 3T3 (H-Ras/3T3), and vector NIH 3T3 cells were grown in the presence of 10 μM cucurbitacin A, cucurbitacin I, withacnistin mixture, or DMSO vehicle control. After 24 hours, cells were harvested by trypsinization and counted via trypan blue exclusion assay to determine cellular viability. In all, 75,000-150,000 cells (depending on cell line) were then spun onto glass slides using a Cytospin 3 centrifuge (Thermo Shandon Inc., Pittsburgh, Pa., USA). After fixing cells to the slides with 4% paraformaldehyde in PBS, pH 7.5, for 1 h at room temperature, cells were labeled for apoptotic DNA strand breaks by TUNEL reaction using an in situ cell death detection kit (Roche Applied Science, Indianapolis, Ind., USA) according to the manufacturer's instructions, then mounted in Vectashield mounting medium (Vector Laboratories, Burlingame, Calif., USA) containing 4′,6-diamidino-2-phenylindole (DAPI) to counterstain DNA. […] TUNELpositive nuclei were counted and compared to DAPI-stained nuclei to determine the percent induction of apoptosis by the different cucurbitacin compounds. Statistical significance between control and treated tumors were evaluated by using Student's t-test. […]

STAT1 = assay: Growth factor/cytokine stimulation of STAT1 tyrosine phosphorylation; type: cell-based, human; conditions: U266 cells, pretreatment
Protocol: Furthermore, it is not know whether Wit suppresses constitutive or stimulated P-STAT3 levels selectively over other STAT family members such as STAT1 and STAT5. To this end, a variety of human cancer cell lines were treated with Wit and stimulated with growth factors or cytokines known to activate STAT family members as described under Methods. […] Pretreatment of U266 cells with W or WM blocked this IL-6 activation of STAT3 in a dose-dependent manner. In contrast, IL-6 activation of STAT1 in these cells was not affected by Wit pretreatment (FIG. 9B).

SOCS3 = SOCS3 levels in cancer cell lines; type: cell-based, human; conditions: A549 cells
Protocol: Activation of STAT3 occurs through its tyrosine phosphorylation. Inactivation of STAT3 can occur through several mechanisms including dephosphorylation by phosphotyrosine protein phosphatases as well as blocking STAT3 activation by SOCS3, which binds and prevents kinases from activating STAT3. To determine whether Wit also affects negative regulators of STAT3, its effects on SOCS3 were determined. To this end, A549 cells were first treated with Wit for various periods of time and its effects on both P-STAT3 and SOCS3 were determined. […] However, by 24 hours, Wit suppressed both P-STAT3 and total STAT3 levels (data not shown). […] It is important to note that WM had little effect on […] protein levels (FIGS. 11A and 11C).

v-Src/3T3 cells = assay: TUNEL apoptosis assay, v-Src/3T3; type: cell-based, murine; conditions: 10 μM withacnistin mixture, 24 hours
Protocol: as §1

**Q.** How did the “levels of phosphorylated Erk1/2” value (phospho-Erk1/2) turn out when `CC(=O)OC[C@]12CC[C@H]3[C@@H](C[C@H]4O[C@]45[C@@H](O)C=CC(=O)[C@]35C)[C@@H]1CC[C@@H]2[C@H](C)[C@H]1CC(C)=C(C)C(=O)O1` [withacnistin] was run?
**A.** Its value is “significantly increased”.

**Q.** What about the “increase of percentage of apoptotic cells compared to vehicle control” value (MDA-MB-453 cells) of the same compound?
**A.** The value was 4.7 fold.

**Q.** And the “IL-6 activation of STAT1” value (STAT1)?
**A.** Its value is “not affected”.

**Q.** And the “levels of SOCS3” value (SOCS3)?
**A.** Its value is “induced”.

**Q.** What about the “onset of SOCS3 induction” value (SOCS3) of the same compound?
**A.** The value was “detectable only after two hours”.

**Q.** And the “apoptosis (TUNEL-positive cells)” value (v-Src/3T3 cells)?
**A.** The value was 39.2±7.3%.

**Q.** What about the “fold increase of apoptosis over control” value (v-Src/3T3 cells) of the same compound?
**A.** Its value is 50.2 fold.
